# Data: US20120196057A1 (priority 2008, published 2012)
# Entries after “also recorded” stand apart in the source; their conditions may differ.
# Experiments:
# [1] = Clinical trial: plasma 25-OH D after single oral bolus of 25-OH D3, Vitamin D3 or both; format: in vivo, human; settings: single oral bolus 140 μg (combo 140 μg + 140 μg)
# Description: Each group included five subjects. They are followed for four months in Zurich, Switzerland during the winter.
# Equal quantities of both substances were investigated. […] As the maximum pre-existing baseline concentration of 25-OH D will be 50 nmol/L, it is not anticipated that subjects will approach the range where disturbance in Ca^2+ homeostasis has been observed.
# Each dosage is consumed orally at breakfast. The duration of the study is four months for the “Daily” and “Weekly” groups. Subjects enrolled in the “Bolus” group consume orally a single dosage at the second study visit and are further followed-up for four months.
# [2] = system: gastrocnemius muscle; test: Gene chip analysis in hindlimb unloading (tail suspension) skeletal muscle atrophy model; format: in vivo, BalbC mice; settings: for Differentially expressed probe sets for genes between HU and HU + treatment group: 50 μg/kg/bw (combo 50+50) by gavage twice, 7 days hindlimb unloading, Affymetrix Mouse 430-2; for Expression of Myosin, light chain kinase (Mylk) / Expression of Tropomyosin 1 (Tpm1) / Expression of Titin (Tnt) / Expression of Myomesin 1 (Myom 1) / Number of differentially expressed probe sets also differentially expressed in 25-OH D3+Vitamin D3 group / Share of differentially expressed probe sets also differentially expressed in 25-OH D3+Vitamin D3 group: gastrocnemius muscle; for Expression of Myosin, light chain kinase (Mylk): HU control 749; for Expression of Tropomyosin 1 (Tpm1): HU control 1179; for Expression of Titin (Tnt): HU control 11353; for Expression of Myomesin 1 (Myom 1): HU control 84697; for Differentially expressed muscle genes compared to HU: selected skeletal muscle genes, list wrapped over table lines; for Number of differentially expressed probe sets also differentially expressed in 25-OH D3+Vitamin D3 group / Share of differentially expressed probe sets also differentially expressed in 25-OH D3+Vitamin D3 group: vs HU control
# Description: Initially this model was established in rats for simulating spaceflight in humans and is commonly used in other scientific fields to study the loss of skeletal muscle mass or bone. The results are considered indicative of human conditions such as sarcopenia (degenerative loss of skeletal muscle mass and strength during the process of ageing) or immobilization of skeletal muscle (e.g. after prolonged bed rest due to fractures, surgery or trauma). Methods For our study, nine month old BalbC female mice were randomized at the beginning of the study into four groups with 10 animals per group • 1. […] The animals were placed in special cages for duration of seven days; all mice were housed separately and had free access to feed and water ad libidum. All animals were treated twice by gavage at the beginning of the experiment and 3 hours before the section: 1. the control group received vehicle (gelatine) […] At the end of the study the gastrocnemius muscle was taken out and directly frozen in liquid nitrogen for further analysis. […] Total RNA was isolated using the commonly used Trizol protocol. The RNA was quantified by using spectrophotometric analysis. The integrity of total RNA samples was also assessed qualitatively on an Agilent 2100 Bioanalyzer. RNA was then prepared for the one cycle cDNA synthesis. A poly-A RNA control is used for this step to provide exogenous positive controls to monitor the entire eukaryotic target labelling process. The first cDNA synthesis is done, and after the second strand cDNA synthesis the cDNA is cleaned up of double-stranded cDNA. A biotin labelled cRNA is then synthesised, cleaned up and quantified using a spectrophotometer at 260/280 nm. It is important that cRNA target is fragmented before hybridization onto a GeneChip probe arrays to obtain optimal assay sensitivity. After fragmentation the probes are hybridized on the chips (Affymetrix Mouse 430-2 chips). The chips are washed and stained in the fluidics station of Affymetrix and scanned in the gene chip scanner. The data is then transferred from the scanner for further analysis using software from Genedata (Expressionist 5.0: […] Analyst). Data interpretation and pathway analysis was done with the online version of the GeneGo Metacore package ([…] evaluates microarray data for quality issues and flags problematic measurements. It provides a set of normalization algorithms and validated condensing methods to automatically pre-process and summarize raw microarray data for subsequent statistical analysis.
# [3] = ingestion of 250 μg/day as a dietary supplement; cited from earlier work
Molecule,Time period with increase in plasma 25-OH D levels by at least 30 nmol/L [1],Differentially expressed probe sets for genes between HU and HU + treatment group [2],"Expression of Myosin, light chain kinase (Mylk) [2]",Expression of Tropomyosin 1 (Tpm1) [2],Expression of Titin (Tnt) [2],Expression of Myomesin 1 (Myom 1) [2],Differentially expressed muscle genes compared to HU [2],Number of differentially expressed probe sets also differentially expressed in 25-OH D3+Vitamin D3 group [2],Share of differentially expressed probe sets also differentially expressed in 25-OH D3+Vitamin D3 group [2] [%],Blood concentration of 25-hydroxyvitamin D resulting from ingestion [3]
"C=C1CC[C@H](O)C/C1=C/C=C1\CCC[C@]2(C)[C@@H]([C@H](C)CCCC(C)(C)O)CC[C@@H]12 [25-OH D3, 25-hydroxyvitamin D3]",4 to 49 h,1263,994,2110,13786,105393,"alkali, smooth muscle and non-muscle; myosin, light; also recorded: polypeptide kinase; myotubularin related protein 2;; also recorded: myotubularin related protein 4; myotubularin related; also recorded: protein 6; tropomyosin 2, beta; X-linked myotubular; also recorded: myopathy gene 1; also recorded: Desmin; dystonin; myocyte enhancer factor 2A;; also recorded: myoneurin; myosin VIIb; myosin, light polypeptide 6,",769,~61,
Vitamin D,no increase of that magnitude,,,,,,,,,about 200 nmol/L
"C=C1CC[C@H](O)C/C1=C/C=C1\CCC[C@]2(C)[C@@H]([C@H](C)CCCC(C)C)CC[C@@H]12 [Vitamin D3, cholecalciferol]",,385,786,2199,11354,99099,"Desmin; myoneurin; tropomyosin 1, alpha; tropomyosin 2,; also recorded: beta; X-linked myotubular myopathy gene 1",177,~46,
